Here are results for one molecule from patent US9744142B2, “Formulations of volatile anesthetics and methods of use for reducing inflammation” (Board of Regents, The University of Texas Systems, priority 2009, dated 2017).

The data set is described as follows: Isoflurane remaining in uncapped vials over time, determined by weighing (volatility). The format is physicochemical. The settings on record: uncapped vial. The method, then: In the Examples that follow, the stability of isoflurane in the described compositions was determined in two ways. First, the compositions were examined for the presence of phase separation at the macroscopic level. Secondly, isoflurane content of the compositions was determined by weighing the remaining isoflurane in the composition when they were left uncapped over time. Briefly, glass vials were filled with 5-10 ml of the composition vehicle and then weighed; one of them received only vehicle (i.e., no isoflurane) and served as control. The other vials received varying amounts of isoflurane. They were left uncapped in the hood. Over time, the vials were weighed to see if the isoflurane stayed in the composition or had evaporated. The amount evaporated over time in the vehicle control was subtracted from that in the isoflurane-containing composition.
The pure form of isoflurane is a volatile anesthetic. In order to assess the volatility of isoflurane, two vials received the indicated amounts of pure form isoflurane. The vials were placed in the chemical fume hood and left uncapped. The vials were weighed at the indicated times to determine the amount of evaporated isoflurane. As it is shown in the table below 0.7893 g isoflurane was evaporated within 3 hours, while 3.4825 g isoflurane took approximately 8 hrs to evaporate completely. These amounts of isoflurane are similar to the amounts of isoflurane that were used to prepare the isoflurane compositions in the Examples that follow.

The structures appear in SMILES notation.

Turning to `FC(F)OC(Cl)C(F)(F)F` (stereo not shown) [isoflurane], the “time until isoflurane was evaporated” value (pure isoflurane 0.7893 g) was no more than 3 h. For the same molecule, under “pure isoflurane 3.4825 g”, the “time to evaporate completely” value is on record as “approximately 8 hrs”. In addition, the 7 h (pure isoflurane 3.4825 g, 7 h, remaining iso as in the neighbouring columns) is 13. The molecule also returned an 8 h (pure isoflurane 3.4825 g, 8 h, remaining iso as in the neighbouring columns) of 3.
